The values that follow come from patent US20180263996A1, “ARYL SULTAM DERIVATIVES AS RORc MODULATORS” (Genentech, Inc., priority 2015, published 2018).

One may read the pIC50 as the IC50 on a negative log10 scale, so that one unit is a factor of ten. Read a high pIC50 as a small IC50.

pIC50: −log10 of the molar value.

The assay addresses T1, RORc (Homo sapiens, UniProt P51449).
T1 construct: host or cells: E. coli
T1 sequence (P51449 269-508 limits assumed): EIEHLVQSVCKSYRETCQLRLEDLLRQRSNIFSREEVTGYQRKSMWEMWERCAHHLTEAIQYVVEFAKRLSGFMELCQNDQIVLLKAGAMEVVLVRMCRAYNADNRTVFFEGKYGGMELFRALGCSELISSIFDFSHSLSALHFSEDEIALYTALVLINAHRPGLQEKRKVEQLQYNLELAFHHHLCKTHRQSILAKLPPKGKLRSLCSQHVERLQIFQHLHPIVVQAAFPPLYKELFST
As to the kind of experiment: In Vitro RORc Ligand Binding Assay. Particulars: IC50 values for RORc. How it is done: This assay was used to determine a compound's potency in inhibiting activity of RORc by determining, Kiapp, IC50, or percent inhibition values.
On day of the assay, 100 uL of 0.05% CHAPS (in deionized H2O) was added to all wells of the GFB Unifilter plate and allowed soak for 1 h. A wash buffer of 50 mM HEPES (pH 7.4), 150 mM NaCl, and 5 mM MgCl2 was prepared to wash the filter plate. To prepare an assay buffer, BSA was added to the wash buffer to reach 0.01% and DTT was added to reach 1 mM.
The 20× compound stocks were diluted in DMSO with Assay Buffer 4-fold to reach 5× the final test concentration in 25% DMSO (10 uL compound+30 uL Assay Buffer). Solutions were mixed by aspiration several times with a pipette set on 50 uL volume.
For two point screening, 10 mM stock compound solutions were diluted in DMSO to obtain 200 uM (20× the high test concentration) and then diluted 10-fold further to reach 20 uM (20× the low test concentration). The 20× stocks were diluted 4-fold with Assay Buffer (10 uL compound+30 uL Assay Buffer) to reach 5× the test concentrations (50 uM and 5 uM) and 10 uL were added to two assay plates for the duplicate wells. With each concentration tested on 2 plates, each set of 80 compounds used 4 assay plates (1 uM and 10 uM, with n=2).
For 25-hydroxycholesterol in 25% DMSO/75% Assay Buffer; 10 uL per well was used for NSB samples. Wells for Total Binding and No Receptor sample determination contained 10 uL of 25% DMSO/75% Assay Buffer per well.
Add 20 uL to all wells to reach 6 nM final concentration in the assay.
Stock receptor solution was diluted in assay buffer to obtain 1.5 ug/mL in Assay Buffer. 20 uL was added to all wells. For No Receptor samples, 20 uL Assay Buffer was substituted for receptor solution.
Assay plates were 96-well polypropylene V-bottom plates. […] 10 uL of 25% DMSO/75% Assay Buffer was added to Total Binding or No Receptor wells. 10 uL of 5 uM 25-hydroxycholesterol in 25% DMSO/75% Assay Buffer was added to NSB wells. […] 20 uL of 1.5 ug/mL RORc receptor was added to wells (or 40 uL Assay Buffer to No R wells). Following addition to the wells, the plates were incubated 3 h at 25° C.
Using a Packard Filtermate Harvester, the filter plate were washed 4 times following transfer of the incubated samples. Plates were dry-filtered completely (2 h at 50° C. or overnight at room temperature). 50 uL Microscint 0 was added to all wells and read on Topcount protocol Inverted.
Final concentrations were as follows: 50 mM HEPES buffer (pH 7.4); 150 mM NaCl; 1 mM DTT; 5 mM MgCl2; 0.01% BSA; 5% DMSO; 0.6 ug/mL RORc receptor; 6 nM 25-[^3H]hydroxycholesterol. For NSB wells, 1 uM 25-hydroxycholesterol was also present.
Turning to `C[C@H]1CC[C@H](c2ccccc2)S(=O)(=O)N1Cc1cc(F)c([C@@H](OCC2CC2)C(N)=O)cc1F` [Compound 18, (2R)-2-(cyclopropylmethoxy)-2-[2,5-difluoro-4-[[(3S,6R)-3-methyl-1,1-dioxo-6-phenyl-thiazinan-2-yl]methyl]phenyl]acetamide], the pIC50 is 7.52.

`C[C@H]1CC[C@H](c2ccccc2)S(=O)(=O)N1Cc1cc(F)c([C@H](OCC2CC2)C(N)=O)cc1F` [Compound 19, (2S)-2-(cyclopropylmethoxy)-2-[2,5-difluoro-4-[[(3S,6R)-3-methyl-1,1-dioxo-6-phenyl-thiazinan-2-yl]methyl]phenyl]acetamide] had a pIC50 of 7.29.

In turn, `C[C@H]1CC[C@H](c2ccccc2)S(=O)(=O)N1Cc1cc(F)c(C(C)(C)NCC(N)=O)cc1F` [Compound 20, 2-[[1-[2,5-difluoro-4-[[(3S,6R)-3-methyl-1,1-dioxo-6-phenyl-thiazinan-2-yl]methyl]phenyl]-1-methyl-ethyl]amino]acetamide] gave a pIC50 of 8.38.

In the case of `C[C@H]1CC[C@H](c2ccccc2)S(=O)(=O)N1Cc1cc(F)c(C2(NCC(N)=O)CC(F)(F)C2)cc1F` [Compound 21, 2-[[1-[2,5-difluoro-4-[[(3S,6R)-3-methyl-1,1-dioxo-6-phenyl-thiazinan-2-yl]methyl]phenyl]-3,3-difluoro-cyclobutyl]amino]acetamide], the pIC50 was 8.82.

On to `C[C@@H](NC1=CC(=O)CCC1)c1cc(F)c(CN2[C@@H](C)CC[C@H](c3ccccc3)S2(=O)=O)cc1F` [Compound 22, 3-[[(1R)-1-[2,5-difluoro-4-[[(3S,6R)-3-methyl-1,1-dioxo-6-phenyl-thiazinan-2-yl]methyl]phenyl]ethyl]amino] cylohex-2-en-1-one], for which the pIC50 was 6.58.

Consider `C[C@H](NC1=CC(=O)CCC1)c1cc(F)c(CN2[C@@H](C)CC[C@H](c3ccccc3)S2(=O)=O)cc1F` [Compound 26, 3-[[(1S)-1-[2,5-difluoro-4-[[(3S,6R)-3-methyl-1,1-dioxo-6-phenyl-thiazinan-2-yl]methyl]phenyl]ethyl]amino] cyclohex-2-en-1-one], for which the pIC50 was 6.88.

As to `C[C@H]1CC[C@H](c2ccccc2)S(=O)(=O)N1Cc1cc(F)c(C23CC(C)(C2)OC3=O)cc1F` [Compound 27, 4-[2,5-difluoro-4-[[(3S,6R)-3-methyl-1,1-dioxo-6-phenyl-thiazinan-2-yl]methyl]phenyl]-1-methyl-2-oxabicyclo[2.1.1]hexan-3-one], the pIC50 is 7.66.

`CNC(=C[N+](=O)[O-])NC(C)c1cc(F)c(CN2C(C)CCC(c3ccccc3)S2(=O)=O)cc1F` [Compound 28, N1′-[1-[2,5-difluoro-4-[[(3S,6R)-3-methyl-1,1-dioxo-6-phenyl-thiazinan-2-yl]methyl]phenyl]ethyl]-N1-methyl-2-nitro-ethene-1,1-diamine] gave a pIC50 of 7.70.

As for `CC(NCC(N)=O)c1cc(F)c(CN2[C@@H](C)CC[C@H](c3ccccc3)S2(=O)=O)cc1F` (stereo partly drawn) [Compound 29, 2-[1-[2,5-difluoro-4-[[(3S,6R)-3-methyl-1,1-dioxo-6-phenyl-thiazinan-2-yl]methyl]phenyl]ethylamino] acetamide], the pIC50 is 7.25.

`C[C@H]1CC[C@H](c2ccccc2)S(=O)(=O)N1Cc1ccc(C2(C(=O)NC3CC3)CCOCC2)cc1F` [Compound 30, N-cyclopropyl-4-[3-fluoro-4-[[(3S,6R)-3-methyl-1,1-dioxo-6-phenyl-thiazinan-2-yl]methyl]phenyl]tetrahydropyran-4-carboxamide] had a pIC50 of 6.89.

Compound `C[C@H]1CC[C@H](c2ccccc2)S(=O)(=O)N1Cc1ccc(C2(C(=O)NCC3CC3)CCOCC2)cc1F` [Compound 31, N-(cyclopropylmethyl)-4-[3-fluoro-4-[[(3S,6R)-3-methyl-1,1-dioxo-6-phenyl-thiazinan-2-yl]methyl]phenyl]tetrahydropyran-4-carboxamide] showed a pIC50 of 7.08.

In turn, `CO[C@H]1C[C@@H](NC(=O)C2(c3ccc(CN4[C@@H](C)CC[C@H](c5ccccc5)S4(=O)=O)c(F)c3)CCOCC2)C1` [Compound 32, 4-[3-fluoro-4-[[(3S,6R)-3-methyl-1,1-dioxo-6-phenyl-thiazinan-2-yl]methyl]phenyl]-N-(3-methoxycyclobutyl)tetrahydropyran-4-carboxamide] had a pIC50 of 7.27.

The compound `C[C@H]1CC[C@H](c2ccccc2)S(=O)(=O)N1Cc1ccc(C2(C(=O)NC3CC(O)C3)CCOCC2)cc1F` (stereo partly drawn) [Compound 34, 4-[3-fluoro-4-[[(3S,6R)-3-methyl-1,1-dioxo-6-phenyl-thiazinan-2-yl]methyl]phenyl]-N-(3-hydroxycyclobutyl)tetrahydropyran-4-carboxamide] gave a pIC50 of 7.87.

As to `C[C@H]1CC[C@H](c2ccccc2)S(=O)(=O)N1Cc1ccc(C2(C(=O)NC3(CO)CC3)CCOCC2)cc1F` [Compound 35, 4-[3-fluoro-4-[[(3S,6R)-3-methyl-1,1-dioxo-6-phenyl-thiazinan-2-yl]methyl]phenyl]-N-[1-(hydroxymethyl)cyclopropyl] tetrahydropyran-4-carboxamide], the pIC50 is 7.37.

As to `C[C@H]1CC[C@H](c2ccccc2)S(=O)(=O)N1Cc1cc(F)c(C2(C(=O)N[C@H]3C[C@H](O)C3)CCOCC2)cc1F` [Compound 37, 4-[2,5-difluoro-4-[[(3S,6R)-3-methyl-1,1-dioxo-6-phenyl-thiazinan-2-yl]methyl]phenyl]-N-(3-hydroxycyclobutyl) tetrahydropyran-4-carboxamide], the pIC50 is 7.32.

In the case of `C[C@H]1CC[C@H](c2ccccc2)S(=O)(=O)N1Cc1cc(F)c(C2(C(=O)N[C@H]3C[C@@H](O)C3)CCOCC2)cc1F` [Compound 38, 4-[2,5-difluoro-4-[[(3S,6R)-3-methyl-1,1-dioxo-6-phenyl-thiazinan-2-yl]methyl]phenyl]-N-(3-hydroxycyclobutyl) tetrahydropyran-4-carboxamide], the pIC50 is 7.49.

As to `C[C@H]1CC[C@H](c2ccccc2)S(=O)(=O)N1Cc1cc(F)c(C2(OCC(=O)NC3CC3)CCOCC2)cc1F` [Compound 41, N-cyclopropyl-2-[4-[2,5-difluoro-4-[[(3S,6R)-3-methyl-1,1-dioxo-6-phenyl-thiazinan-2-yl]methyl]phenyl]tetrahydropyran-4-yl]oxy-acetamide], the pIC50 was 8.17.

The compound `C[C@H]1CC[C@H](c2ccccc2)S(=O)(=O)N1Cc1cc(F)c([C@@]23C[C@@H]2COC3=O)cc1F` [Compound 43, (1R,5S)-1-[2,5-difluoro-4-[[(3S,6R)-3-methyl-1,1-dioxo-6-phenyl-thiazinan-2-yl]methyl]phenyl]-3-oxabicyclo[3.1.0]hexan-2-one] showed a pIC50 of 7.40.

`C[C@H]1CC[C@H](c2ccccc2)S(=O)(=O)N1Cc1cc(F)c(C2(C(N)=O)CC(CC#N)C2)cc1F` (stereo partly drawn) [Compound 44, 3-(cyanomethyl)-1-[2,5-difluoro-4-[[(3S,6R)-3-methyl-1,1-dioxo-6-phenyl-thiazinan-2-yl]methyl]phenyl]cyclobutane-carboxamide] had a pIC50 of 7.73.

In turn, `CN/C(=C\C#N)NC(C)c1cc(F)c(CN2[C@@H](C)CC[C@H](c3ccccc3)S2(=O)=O)cc1F` (stereo partly drawn) [Compound 45, 3-[1-[2,5-difluoro-4-[[(3S,6R)-3-methyl-1,1-dioxo-6-phenyl-thiazinan-2-yl]methyl]phenyl]ethylamino]-3-(methylamino)prop-2-enenitrile; formic acid] had a pIC50 of 6.16.

For the compound `C[C@H]1CC[C@H](c2ccccc2)S(=O)(=O)N1Cc1cc(F)c([C@]2(C(N)=O)C[C@](C)(O)C2)cc1F` [Compound 48, 1-[2,5-difluoro-4-[[(3S,6R)-3-methyl-1,1-dioxo-6-phenyl-thiazinan-2-yl]methyl]phenyl]-3-hydroxy-3-methyl-cyclobutanecarboxamide], the pIC50 was 8.33.
